Experimental data as given in ChEMBL document CHEMBL1201862, “PubChem BioAssay data set” (2004).
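Cultured in 96-well plates, cells were exposed to test compound for 48 hours across five concentrations. Abbreviation: GI50, concentration required for 50% inhibition of growth.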 Active and inactive are the calls of the source. No stated cut-off is given here; in the data, active = GI50 up to about 1.1 µM and inactive = higher.

Experiments:
Test in all cases: growth of human tumour cells (NCI), 48 h
[1] = system: 786-0
[2] = system: A498
[3] = system: A549
[4] = system: ACHN
[5] = system: BT-549
[6] = system: CAKI-1
[7] = system: CCRF-CEM
[8] = system: COLO 205
[9] = system: DU-145
[10] = system: EKVX
[11] = system: HCT-116
[12] = system: HCT-15
[13] = system: HOP-62
[14] = system: HOP-92
[15] = system: HT-29
[16] = system: Hs-578T
[17] = system: IGROV-1
[18] = system: K562
[19] = system: KM12
[20] = system: LOX IMVI
[21] = system: M14
[22] = system: MCF7
[23] = system: MDA-MB-231
[24] = system: MDA-MB-435
[25] = system: MDA-N
[26] = system: MOLT-4
[27] = system: Malme-3M
[28] = system: NCI-H226
[29] = system: NCI-H23
[30] = system: NCI-H460
[31] = system: NCI-H522
[32] = system: NCI/ADR-RES
[33] = system: OVCAR-3
[34] = system: OVCAR-4
[35] = system: OVCAR-5
[36] = system: OVCAR-8
[37] = system: PC-3
[38] = system: RPMI-8226
[39] = system: RXF 393
[40] = system: SF-268
[41] = system: SF-295
[42] = system: SF-539
[43] = system: SK-MEL-28
[44] = system: SK-MEL-2
[45] = system: SK-MEL-5
[46] = system: SK-OV-3
[47] = system: SN12C
[48] = system: SNB-19
[49] = system: SNB-75
[50] = system: SW-620
[51] = system: T47D
[52] = system: TK-10
[53] = system: U-251
[54] = system: UACC-257
[55] = system: UO-31
[56] = system: HCC 2998
[57] = system: HL-60
[58] = system: UACC-62
[59] = system: SR

CC(C)CC1N=C(OCc2ccccc2)OC1=O (configuration not stated)
GI50 [1]: > 100 µM (inactive)
GI50 [2]: > 100 µM (inactive)
GI50 [3]: > 100 µM (inactive)
GI50 [4]: > 100 µM (inactive)
GI50 [5]: > 100 µM (inactive)
GI50 [6]: > 100 µM (inactive)
GI50 [7]: > 100 µM (inactive)
GI50 [8]: > 10 µM (inactive)
GI50 [9]: > 100 µM (inactive)
GI50 [10]: > 100 µM (inactive)
GI50 [11]: > 100 µM (inactive)
GI50 [12]: > 100 µM
GI50 [13]: > 100 µM (inactive)
GI50 [14]: > 100 µM (inactive)
GI50 [15]: > 100 µM (inactive)
GI50 [16]: > 100 µM (inactive)
GI50 [17]: > 100 µM (inactive)
GI50 [18]: > 100 µM (inactive)
GI50 [19]: > 100 µM (inactive)
GI50 [20]: > 100 µM (inactive)
GI50 [21]: > 100 µM (inactive)
GI50 [22]: > 100 µM (inactive)
GI50 [23]: > 100 µM (inactive)
GI50 [24]: > 100 µM (inactive)
GI50 [25]: > 100 µM (inactive)
GI50 [26]: > 100 µM (inactive)
GI50 [27]: > 100 µM (inactive)
GI50 [28]: > 100 µM (inactive)
GI50 [29]: > 100 µM (inactive)
GI50 [30]: > 100 µM (inactive)
GI50 [31]: > 100 µM (inactive)
GI50 [32]: > 100 µM (inactive)
GI50 [33]: > 100 µM (inactive)
GI50 [34]: > 100 µM (inactive)
GI50 [35]: > 100 µM (inactive)
GI50 [36]: > 100 µM (inactive)
GI50 [37]: > 100 µM (inactive)
GI50 [38]: > 100 µM (inactive)
GI50 [39]: > 100 µM (inactive)
GI50 [40]: 2.79 µM (inactive)
GI50 [41]: > 100 µM (inactive)
GI50 [42]: > 100 µM (inactive)
GI50 [43]: > 100 µM (inactive)
GI50 [44]: > 100 µM (inactive)
GI50 [45]: 45.7 µM (inactive)
GI50 [46]: > 100 µM (inactive)
GI50 [47]: > 100 µM (inactive)
GI50 [48]: > 100 µM (inactive)
GI50 [49]: > 100 µM (inactive)
GI50 [50]: > 100 µM (inactive)
GI50 [51]: > 100 µM (inactive)
GI50 [52]: > 100 µM (inactive)
GI50 [53]: > 100 µM (inactive)
GI50 [54]: > 100 µM (inactive)
GI50 [55]: > 100 µM (inactive)

CCOC(=O)C(C)c1nc2cc(F)c(F)cc2[nH]c1=O (configuration not stated)
GI50 [1]: > 100 µM (inactive)
GI50 [3]: > 100 µM (inactive)
GI50 [4]: > 100 µM (inactive)
GI50 [5]: > 100 µM (inactive)
GI50 [6]: > 100 µM (inactive)
GI50 [7]: > 100 µM (inactive)
GI50 [8]: > 100 µM (inactive)
GI50 [9]: > 100 µM (inactive)
GI50 [10]: > 100 µM (inactive)
GI50 [56]: > 100 µM (inactive)
GI50 [11]: > 100 µM (inactive)
GI50 [12]: > 100 µM
GI50 [57]: > 100 µM (inactive)
GI50 [13]: > 100 µM (inactive)
GI50 [14]: > 100 µM (inactive)
GI50 [15]: > 100 µM (inactive)
GI50 [16]: > 100 µM (inactive)
GI50 [18]: > 100 µM (inactive)
GI50 [19]: > 100 µM (inactive)
GI50 [20]: > 100 µM (inactive)
GI50 [21]: > 100 µM (inactive)
GI50 [22]: > 100 µM (inactive)
GI50 [23]: > 100 µM (inactive)
GI50 [24]: > 100 µM (inactive)
GI50 [25]: > 100 µM (inactive)
GI50 [26]: > 100 µM (inactive)
GI50 [27]: > 100 µM (inactive)
GI50 [28]: > 100 µM (inactive)
GI50 [29]: > 100 µM (inactive)
GI50 [30]: > 100 µM (inactive)
GI50 [32]: > 100 µM (inactive)
GI50 [33]: > 100 µM (inactive)
GI50 [34]: > 100 µM (inactive)
GI50 [35]: > 100 µM (inactive)
GI50 [36]: > 100 µM (inactive)
GI50 [37]: > 100 µM (inactive)
GI50 [38]: > 100 µM (inactive)
GI50 [39]: > 100 µM (inactive)
GI50 [40]: > 100 µM (inactive)
GI50 [41]: > 100 µM (inactive)
GI50 [42]: > 100 µM (inactive)
GI50 [43]: > 100 µM (inactive)
GI50 [44]: > 100 µM (inactive)
GI50 [45]: > 100 µM (inactive)
GI50 [46]: > 100 µM (inactive)
GI50 [47]: > 100 µM (inactive)
GI50 [48]: > 100 µM (inactive)
GI50 [49]: > 100 µM (inactive)
GI50 [50]: > 100 µM (inactive)
GI50 [51]: 22.9 µM (inactive)
GI50 [52]: > 100 µM (inactive)
GI50 [53]: > 100 µM (inactive)
GI50 [54]: > 100 µM (inactive)
GI50 [58]: > 100 µM (inactive)
GI50 [55]: > 100 µM (inactive)

COc1cccc(-c2c(C#N)c(N)nc3c2CCS(=O)(=O)c2ccc(C)cc2-3)c1
GI50 [1]: 61.7 µM (inactive)
GI50 [2]: > 100 µM (inactive)
GI50 [3]: > 100 µM (inactive)
GI50 [4]: > 100 µM (inactive)
GI50 [5]: > 100 µM (inactive)
GI50 [6]: > 100 µM (inactive)
GI50 [7]: > 100 µM (inactive)
GI50 [8]: > 100 µM (inactive)
GI50 [9]: > 100 µM (inactive)
GI50 [56]: 78.2 µM (inactive)
GI50 [11]: > 100 µM (inactive)
GI50 [12]: > 100 µM
GI50 [57]: > 100 µM (inactive)
GI50 [13]: > 100 µM (inactive)
GI50 [14]: > 100 µM (inactive)
GI50 [15]: > 100 µM (inactive)
GI50 [16]: > 100 µM (inactive)
GI50 [17]: > 100 µM (inactive)
GI50 [18]: > 100 µM (inactive)
GI50 [19]: > 100 µM (inactive)
GI50 [20]: > 100 µM (inactive)
GI50 [21]: > 100 µM (inactive)
GI50 [23]: > 100 µM (inactive)
GI50 [24]: > 100 µM (inactive)
GI50 [25]: > 100 µM (inactive)
GI50 [27]: 68.1 µM (inactive)
GI50 [28]: > 100 µM (inactive)
GI50 [29]: > 100 µM (inactive)
GI50 [30]: > 100 µM (inactive)
GI50 [31]: > 100 µM (inactive)
GI50 [32]: > 100 µM (inactive)
GI50 [33]: > 100 µM (inactive)
GI50 [34]: 95.5 µM (inactive)
GI50 [35]: > 100 µM (inactive)
GI50 [36]: 43.8 µM (inactive)
GI50 [37]: 89.1 µM (inactive)
GI50 [38]: > 100 µM (inactive)
GI50 [40]: > 100 µM (inactive)
GI50 [43]: > 100 µM (inactive)
GI50 [44]: > 100 µM (inactive)
GI50 [45]: > 100 µM (inactive)
GI50 [47]: > 100 µM (inactive)
GI50 [48]: 56.2 µM (inactive)
GI50 [49]: 33 µM (inactive)
GI50 [59]: 40.6 µM (inactive)
GI50 [50]: > 100 µM (inactive)
GI50 [51]: > 100 µM (inactive)
GI50 [52]: > 100 µM (inactive)
GI50 [53]: > 100 µM (inactive)
GI50 [54]: 65.2 µM (inactive)
GI50 [58]: > 100 µM (inactive)
GI50 [55]: > 100 µM (inactive)
